According to article PMC10094600, “Enzymatic Synthesis of 2-Chloropurine Arabinonucleosides with Chiral Amino Acid Amides at the C6 Position and an Evaluation of Antiproliferative Activity In Vitro” (International Journal of Molecular Sciences, 2023):

Molecular target: T1, E. coli adenosine deaminase (Escherichia coli, UniProt P22333)
T1 construct: gene add; recombinant
T1 sequence (P22333 1-333): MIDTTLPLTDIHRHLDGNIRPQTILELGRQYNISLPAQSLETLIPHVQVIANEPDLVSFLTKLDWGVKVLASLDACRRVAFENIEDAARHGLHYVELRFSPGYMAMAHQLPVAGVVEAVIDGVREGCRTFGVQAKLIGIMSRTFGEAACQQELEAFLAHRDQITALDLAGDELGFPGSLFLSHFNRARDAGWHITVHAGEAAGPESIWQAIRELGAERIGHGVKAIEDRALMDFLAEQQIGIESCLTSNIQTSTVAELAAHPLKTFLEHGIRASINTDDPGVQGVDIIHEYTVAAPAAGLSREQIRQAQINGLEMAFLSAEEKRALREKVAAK
Test: inhibition of adenosine deamination, HPLC, Lineweaver-Burk
Type: biochemical

SMILES	Ki [µM]
NC(=O)[C@H](CO)Nc1nc(Cl)nc2c1ncn2[C@@H]1O[C@H](CO)[C@@H](O)[C@@H]1O [4b, 9-β-D-Arabinofuranosyl-2-chloro-6-(N^α-L-serinylamido)-purine]	1200 ± 200
Nc1nc(Cl)nc2c1ncn2[C@@H]1O[C@H](CO)[C@@H](O)[C@H]1O [compound 15, 2-chloradenosine]	78 ± 12
Nc1nc(Cl)nc2c1ncn2[C@@H]1O[C@H](CO)[C@@H](O)[C@@H]1O [compound 16, 6-Amino-2-chloro-9-beta-D-arabinofuranosyl-9H-purine]	130 ± 20
